In patent US20230134958A1, “NEW MEDICAL TREATMENT” (Umecrine Cognition AB, priority 2021, published 2023):

System: cirrhotic patients defined as Child-Pugh class A and B with manifestation of CHE
Assay: Continuous Reaction Time (CRT) test, clinical Phase II study part D (EudraCT 2016-003651-30), 21 days extended treatment
Format: in vivo, human
Method: Protocol EudraCT 2016-003651-30 was a randomized, double-blinded, placebo-controlled study consisting of four parts, where part D (partly) of the study is relevant to the herein disclosed and claimed invention. The aim of the study was to assess the potential efficacy (Part D) of the compound golexanolone in patients with cirrhosis. The study was performed at sites in Sweden, Denmark, Ukraine, Russia, Hungary and Poland.
Extended treatment (21 consecutive days) in cirrhotic patients defined as Child-Pugh class A and B with manifestation of CHE, was performed.
An objective of study part D (phase IIa, extended treatment) was to assess preliminary efficacy of treatment with the compound golexanolone on cognitive function, as measured by the Continuous Reaction time (CRT) test.
In order to be eligible for the study, patients required evidence of cognitive impairment defined as a CRT index <1.9 at screening. CRT was re-assessed at baseline, prior to dosing but was not required to be abnormal at baseline.
Exclusion criteria included uncontrolled infection, active gastrointestinal bleeding, a history of bleeding requiring transfusion, transjugular intrahepatic portosystemic shunt placement within the past 90 days, hepatorenal syndrome, uncontrolled ascites, current malignancy, evidence of overt HE at screening or within 7 days of screening, use of psychoactive drugs, or any other psychiatric or medical comorbidity judged by the Investigator to preclude safe participation and/or confound the interpretation of study results.
Alcohol consumption was not allowed within two days prior to screening or for 24 hours prior to all study visits. Moreover, subjects were required to have a negative alcohol breath test at screening and subsequent study visits, including Part D study days 10 and 21 at which cognitive function was measured.
The Investigational Medicinal Product (IMP) is self-administered by the patient at home, except for the study days of visiting the clinic (Days 1, 10 and 21), when the IMP is administered under surveillance. Assistance of a dedicated care-giver or family members/friends is mandatory during the extended treatment period. Intake of study medication, changes in concomitant medications and medical events between visits are registered in a diary on a daily basis by the patient/care-giver and a care-giver diary is completed. Efficacy parameters are evaluated. If assessed as required for practical reasons, a patient can be confined to the research clinic from the evening before dosing on Day 21. A follow-up visit is performed 5-10 days after (last) IMP administration. Change in CRT index from baseline (day 1) to 10 and 21 days respectively after start of treatment, as
compared to placebo, is evaluated.
The Investigational Medical Product (clinical formulation) is supplied as a lipid semi-solid filled in a gelatine capsule for oral administration. For the present study, each capsule contains 10 mg golexanolone. The excipient is a mixture of mono -and diglycerides of capric/caprylic glycerides (Imwitor® 742), which is of pharmacopoeia quality.
The Investigational Medical Product golexanolone is administered every twelve (12) hours (i. e. twice daily) for 21 consecutive days.
10 mg golexanolone BID (i.e. 20 mg per day) in combination with Standard of Care therapy; or 40 mg golexanolone BID (i.e. 80 mg per day) in combination with Standard of Care therapy; or 80 mg golexanolone BID (i.e. 160 mg per day) in combination with Standard of Care therapy; or placebo BID in combination with Standard of Care therapy.
Standard of Care therapy may be any one of an oral antioxidant, fluvoxamine, fluoxetine, ondansetron, colchicine, UDCA (ursodeoxycholic acid), OCA (obeticholic acid), ciclosporin, nalmefene, modafinil, rituximab, lactulose, rifaximin, propranolol, furosemide, methotrexate; or any combination thereof.

C#C[C@]1(O)CC[C@@]2(C)C(CC[C@@H]3[C@@H]2CC[C@]2(C)/C(=N/O)CC[C@@H]32)C1 (stereo partly drawn) [Golexanolone, 3α-ethynyl-3β-hydroxyandrostan-17-one oxime]
Change in CRT compared to baseline (36 patients with abnormal CRT (<1.9) at baseline, 10 mg BID oral with Standard of Care, Day 10, N = 8): 0.3504 | Change in CRT compared to baseline (36 patients with abnormal CRT (<1.9) at baseline, 10 mg BID oral with Standard of Care, Day 21, N = 8): 0.4166 | Change in CRT compared to baseline (36 patients with abnormal CRT (<1.9) at baseline, 40 mg BID oral with Standard of Care, Day 10, N = 10): 0.3035 | Change in CRT compared to baseline (36 patients with abnormal CRT (<1.9) at baseline, 40 mg BID oral with Standard of Care, Day 21, N = 10): 0.4276 | Change in CRT compared to baseline (36 patients with abnormal CRT (<1.9) at baseline, 80 mg BID oral with Standard of Care, Day 10, N = 9): 0.5109 | Change in CRT compared to baseline (36 patients with abnormal CRT (<1.9) at baseline, 80 mg BID oral with Standard of Care, Day 21, N = 9): 0.5219 | Change in CRT compared to baseline (all 45 patients with abnormal (<1.9) or normal CRT at baseline, 10 mg BID oral with Standard of Care, Day 10, N = 10): 0.2762 | Change in CRT compared to baseline (all 45 patients with abnormal (<1.9) or normal CRT at baseline, 10 mg BID oral with Standard of Care, Day 21, N = 10): 0.2792 | Change in CRT compared to baseline (all 45 patients with abnormal (<1.9) or normal CRT at baseline, 40 mg BID oral with Standard of Care, Day 10, N = 10): 0.3035 | Change in CRT compared to baseline (all 45 patients with abnormal (<1.9) or normal CRT at baseline, 40 mg BID oral with Standard of Care, Day 21, N = 10): 0.4276 | Change in CRT compared to baseline (all 45 patients with abnormal (<1.9) or normal CRT at baseline, 80 mg BID oral with Standard of Care, Day 10, N = 13): 0.4593 | Change in CRT compared to baseline (all 45 patients with abnormal (<1.9) or normal CRT at baseline, 80 mg BID oral with Standard of Care, Day 21, N = 13): 0.3505
